According to the supplement of paper PMC7661543:
± gives the standard deviation of the averaged measurements.

What was measured:
Experiment in all cases: relative cell number vs DMSO control (72 h) (% of DMSO); higher = less growth inhibition (more cells)
Conditions in all cases: sgRNA knockout: sgNT
[1] = system: MDA-MB-231
Experimental: (§1)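 QMAP-Seq: a pool of 5 breast cancer cell lines (ZR-75-1, SKBR3, HCC-38, MDA-MB-231, BT-20), each carrying 12 doxycycline-inducible Cas9 sgRNA perturbations (11 knockouts plus non-targeting sgNT), was treated with compounds for 72 h at four 10-fold doses (10 nM-10 uM or 1 nM-1 uM range). Barcodes were amplified and sequenced, and cell number was interpolated from 293T spike-in standard curves. The result is expressed as % of the median of DMSO wells. Two biological replicates.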

[2] = system: BT-20
Experimental: as §1

[3] = system: ZR-75-1
Experimental: as §1

[4] = system: SKBR3
Experimental: as §1

[5] = system: HCC-38
Experimental: as §1

| SMILES | relative cell number ([1]; 10 nM) | relative cell number ([1]; 100 nM) | relative cell number ([1]; 1000 nM) | relative cell number ([1]; 10000 nM) | relative cell number ([2]; 10 nM) | relative cell number ([2]; 100 nM) | relative cell number ([2]; 1000 nM) | relative cell number ([2]; 10000 nM) | relative cell number ([3]; 10 nM) | relative cell number ([3]; 100 nM) | relative cell number ([3]; 1000 nM) | relative cell number ([3]; 10000 nM) | relative cell number ([4]; 10 nM) | relative cell number ([4]; 100 nM) | relative cell number ([4]; 1000 nM) | relative cell number ([4]; 10000 nM) | relative cell number ([5]; 10 nM) | relative cell number ([5]; 100 nM) | relative cell number ([5]; 1000 nM) | relative cell number ([5]; 10000 nM) |
| --- | --- | --- | --- | --- | --- | --- | --- | --- | --- | --- | --- | --- | --- | --- | --- | --- | --- | --- | --- | --- |
| Cc1cn(-c2cc(NC(=O)c3ccc(C)c(Nc4nccc(-c5cccnc5)n4)c3)cc(C(F)(F)F)c2)cn1 [Nilotinib] | 80.9 ± 6.4 | 118 ± 19 | 88.1 ± 1.5 | 63.5 ± 28 | 99.6 ± 18 | 87.1 ± 14 | 94.2 ± 22 | 63.1 ± 6.3 | 75.2 ± 1.9 | 94.4 ± 29 | 107 ± 2.8 | 35.1 ± 20 | 79.5 ± 24 | 88.7 ± 0.9 | 98.3 ± 25 | 13.8 ± 12 | 93.4 ± 2.5 | 102 ± 16 | 98.8 ± 11 | 93.7 ± 30 |
| O=[N+]([O-])c1ccc(O)c2ncccc12 [Nitroxoline] | 54.2 ± 9.2 | 103 ± 22 | 88.3 ± 10 | 37.7 ± 9.7 | 93.1 ± 19 | 87.9 ± 43 | 114 ± 13 | 56.1 ± 6.1 | 86.7 ± 6.9 | 94.1 ± 17 | 97.4 ± 51 | 33.4 ± 19 | 82.9 ± 23 | 91.1 ± 3.5 | 43.59 ± 0.14 | 40 ± 6.6 | 86.5 ± 3.6 | 88.83 ± 0.36 | 107 ± 14 | 45.9 ± 0.87 |
| COc1cccc2cc(-c3nc([C@H]4CC[C@H](C(=O)O)CC4)n4ncnc(N)c34)[nH]c12 [OSI027] | 97.4 ± 8.9 | 128 ± 27 | 83.4 ± 29 | 58.9 ± 11 | 85.8 ± 7.3 | 113 ± 1.8 | 83.39 ± 0.24 | 52.5 ± 14 | 81.1 ± 21 | 94.9 ± 17 | 63.4 ± 24 | 25.4 ± 2 | 87.6 ± 25 | 116 ± 31 | 69.9 ± 14 | 27.8 ± 6.2 | 108 ± 20 | 107 ± 29 | 84.2 ± 1.9 | 31.2 ± 0.23 |
| O=C(c1cc(Cc2n[nH]c(=O)c3ccccc23)ccc1F)N1CCN(C(=O)C2CC2)CC1 [Olaparib] | 87.3 ± 12 | 83.4 ± 1.6 | 93.9 ± 22 | 93.2 ± 31 | 103 ± 6 | 85.9 ± 12 | 73.2 ± 6.7 | 94 ± 7.7 | 78.3 ± 13 | 89.3 ± 28 | 64.1 ± 3.7 | 91.3 ± 17 | 87.7 ± 1.6 | 111 ± 9.3 | 85.4 ± 11 | 48.7 ± 9.5 | 93.4 ± 4.8 | 102 ± 2.2 | 88.6 ± 1.6 | 62.5 ± 0.89 |
| Cc1ncc([N+](=O)[O-])n1CC(O)CCl (stereo not given) [Ornidazole] | 103.6 ± 0.42 | 108 ± 7.5 | 74.3 ± 12 | 138 ± 14 | 103 ± 7.7 | 81.8 ± 1.3 | 96.5 ± 6.5 | 104 ± 17 | 95 ± 18 | 76.4 ± 24 | 121 ± 71 | 84.3 ± 25 | 70.1 ± 3.7 | 102 ± 12 | 91.3 ± 26 | 104 ± 29 | 84.2 ± 8.7 | 88.1 ± 7.5 | 114 ± 19 | 97.7 ± 13 |
